Experimental data as given in ChEMBL document CHEMBL1201862, “PubChem BioAssay data set” (2004).
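Dose response: 5 concentrations. Exposure: 48 h. Format: 96-well plates. Endpoint: linear interpolation; highest concentration if not reached. Abbreviation: GI50, concentration required for 50% inhibition of growth.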 Active and inactive are the calls of the source. No stated cut-off is given here; in the data, active = GI50 up to about 1.1 µM and inactive = higher.

What was measured:
Assay in all cases: NCI anticancer screen, dose series, 48 h
MDA-MB-435 = tested on: MDA-MB-435
HL-60 = tested on: HL-60
HCT-15 = tested on: HCT-15
MDA-N = tested on: MDA-N
OVCAR-8 = tested on: OVCAR-8
COLO 205 = tested on: COLO 205
TK-10 = tested on: TK-10
MOLT-4 = tested on: MOLT-4
SF-295 = tested on: SF-295
Malme-3M = tested on: Malme-3M
T47D = tested on: T47D
ACHN = tested on: ACHN
OVCAR-4 = tested on: OVCAR-4
EKVX = tested on: EKVX
CCRF-CEM = tested on: CCRF-CEM
786-0 = tested on: 786-0
BT-549 = tested on: BT-549
MDA-MB-231 = tested on: MDA-MB-231
SN12C = tested on: SN12C
SNB-19 = tested on: SNB-19

C=C(Cl)[C@@](Cl)(CBr)CC[C@@H](Br)C(C)(C)Cl
GI50 (MDA-MB-435): 1.4 µM (inactive) | GI50 (HL-60): 0.3 µM (active) | GI50 (HCT-15): 0.759 µM | GI50 (MDA-N): 0.255 µM (active) | GI50 (OVCAR-8): 0.466 µM (active) | GI50 (COLO 205): 0.5 µM (active) | GI50 (TK-10): 0.269 µM (active) | GI50 (MOLT-4): 22.9 µM (inactive) | GI50 (SF-295): 0.207 µM (active) | GI50 (Malme-3M): 21.7 µM (inactive) | GI50 (T47D): 0.153 µM (active) | GI50 (ACHN): 0.149 µM (active) | GI50 (OVCAR-4): 0.912 µM (active) | GI50 (EKVX): 2.97 µM (inactive) | GI50 (CCRF-CEM): 15.8 µM (inactive) | GI50 (786-0): 0.0603 µM (active) | GI50 (BT-549): 3.66 µM (inactive) | GI50 (MDA-MB-231): 0.211 µM (active) | GI50 (SN12C): 2.11 µM (inactive) | GI50 (SNB-19): 0.499 µM (active)

[N-]=[N+]=CC(=O)C1CCCN1C(=O)c1ccccc1 (stereo not given)
GI50 (MDA-MB-435): > 10 µM (inactive) | GI50 (HL-60): > 10 µM (inactive) | GI50 (HCT-15): > 10 µM | GI50 (MDA-N): > 10 µM (inactive) | GI50 (OVCAR-8): > 10 µM (inactive) | GI50 (COLO 205): > 10 µM (inactive) | GI50 (TK-10): > 10 µM (inactive) | GI50 (MOLT-4): > 10 µM (inactive) | GI50 (SF-295): > 10 µM (inactive) | GI50 (Malme-3M): > 10 µM (inactive) | GI50 (T47D): > 10 µM (inactive) | GI50 (ACHN): > 10 µM (inactive) | GI50 (OVCAR-4): > 10 µM (inactive) | GI50 (EKVX): > 10 µM (inactive) | GI50 (CCRF-CEM): > 10 µM (inactive) | GI50 (786-0): > 10 µM (inactive) | GI50 (BT-549): > 10 µM (inactive) | GI50 (MDA-MB-231): > 10 µM (inactive) | GI50 (SN12C): > 10 µM (inactive) | GI50 (SNB-19): > 10 µM (inactive)

CN1CCN(CCCCN2c3ccccc3Sc3cc(N=[N+]=[N-])ccc32)CC1
GI50 (MDA-MB-435): 1.7 µM (inactive) | GI50 (HL-60): 2.26 µM (inactive) | GI50 (HCT-15): 2.28 µM | GI50 (MDA-N): 3.41 µM (inactive) | GI50 (OVCAR-8): 1.82 µM (inactive) | GI50 (COLO 205): 1.74 µM (inactive) | GI50 (TK-10): 1.91 µM (inactive) | GI50 (MOLT-4): 1.77 µM (inactive) | GI50 (SF-295): 2.18 µM (inactive) | GI50 (Malme-3M): 1.71 µM (inactive) | GI50 (T47D): 9.23 µM (inactive) | GI50 (ACHN): 2.15 µM (inactive) | GI50 (OVCAR-4): 2.88 µM (inactive) | GI50 (EKVX): 5.69 µM (inactive) | GI50 (CCRF-CEM): 2.14 µM (inactive) | GI50 (786-0): 1.62 µM (inactive) | GI50 (BT-549): 7.76 µM (inactive) | GI50 (MDA-MB-231): 1.91 µM (inactive) | GI50 (SN12C): 2.31 µM (inactive) | GI50 (SNB-19): 3.62 µM (inactive)

C[C@H](CCC(=O)O)[C@H]1CC[C@H]2[C@@H]3[C@@H](O)C[C@@H]4C[C@H](O)CC[C@]4(C)[C@H]3CC[C@]12C [URSODIOL]
GI50 (MDA-MB-435): > 100 µM (inactive) | GI50 (HL-60): > 100 µM (inactive) | GI50 (HCT-15): > 100 µM | GI50 (MDA-N): > 100 µM (inactive) | GI50 (OVCAR-8): > 100 µM (inactive) | GI50 (COLO 205): > 100 µM (inactive) | GI50 (TK-10): > 100 µM (inactive) | GI50 (MOLT-4): 47.4 µM (inactive) | GI50 (Malme-3M): > 100 µM (inactive) | GI50 (T47D): > 100 µM (inactive) | GI50 (ACHN): > 100 µM (inactive) | GI50 (OVCAR-4): > 100 µM (inactive) | GI50 (EKVX): > 100 µM (inactive) | GI50 (CCRF-CEM): > 100 µM (inactive) | GI50 (786-0): > 100 µM (inactive) | GI50 (BT-549): > 100 µM (inactive) | GI50 (MDA-MB-231): > 100 µM (inactive) | GI50 (SN12C): > 100 µM (inactive) | GI50 (SNB-19): > 100 µM (inactive)

CC1=NN(c2ccccc2)C2(C1)C(Cl)C(=O)N2c1nc2ccccc2s1 (stereo not given)
GI50 (MDA-MB-435): 40.6 µM (inactive) | GI50 (HL-60): 21.1 µM (inactive) | GI50 (HCT-15): 29.9 µM | GI50 (MDA-N): 35.6 µM (inactive) | GI50 (OVCAR-8): 36.1 µM (inactive) | GI50 (COLO 205): 27.3 µM (inactive) | GI50 (TK-10): > 100 µM (inactive) | GI50 (MOLT-4): 20.7 µM (inactive) | GI50 (SF-295): 28.8 µM (inactive) | GI50 (Malme-3M): 42.2 µM (inactive) | GI50 (T47D): 31.5 µM (inactive) | GI50 (ACHN): 46.9 µM (inactive) | GI50 (OVCAR-4): 85.1 µM (inactive) | GI50 (EKVX): 30.6 µM (inactive) | GI50 (CCRF-CEM): 14.9 µM (inactive) | GI50 (786-0): 31.9 µM (inactive) | GI50 (BT-549): 34.1 µM (inactive) | GI50 (MDA-MB-231): 28.8 µM (inactive) | GI50 (SN12C): 23.5 µM (inactive) | GI50 (SNB-19): 43 µM (inactive)

O=C(N/N=C1/C(=O)c2c3ccccc3cc3cccc1c23)c1ccccc1
GI50 (MDA-MB-435): 25.9 µM (inactive) | GI50 (HL-60): > 68.9 µM (inactive) | GI50 (HCT-15): 49.1 µM | GI50 (MDA-N): 39.4 µM (inactive) | GI50 (OVCAR-8): 31.1 µM (inactive) | GI50 (COLO 205): > 65.6 µM (inactive) | GI50 (TK-10): 22.1 µM (inactive) | GI50 (MOLT-4): > 62.7 µM (inactive) | GI50 (SF-295): 20.5 µM (inactive) | GI50 (Malme-3M): 33.5 µM (inactive) | GI50 (T47D): 3.69 µM (inactive) | GI50 (ACHN): 29.1 µM (inactive) | GI50 (OVCAR-4): 20.8 µM (inactive) | GI50 (EKVX): 75.7 µM (inactive) | GI50 (CCRF-CEM): > 53.1 µM (inactive) | GI50 (786-0): 19.1 µM (inactive) | GI50 (BT-549): > 100 µM (inactive) | GI50 (MDA-MB-231): 42.4 µM (inactive) | GI50 (SN12C): 37.8 µM (inactive) | GI50 (SNB-19): 35.8 µM (inactive)

OCCOc1ccc(-c2cc(-c3ccccn3)nc(-c3ccccn3)c2)cc1
GI50 (MDA-MB-435): 0.526 µM (active) | GI50 (HL-60): 0.0538 µM (active) | GI50 (HCT-15): 0.0574 µM | GI50 (MDA-N): 0.697 µM (active) | GI50 (OVCAR-8): 0.07 µM (active) | GI50 (COLO 205): 0.115 µM (active) | GI50 (TK-10): 0.889 µM (active) | GI50 (MOLT-4): 0.0767 µM (active) | GI50 (SF-295): 0.222 µM (active) | GI50 (Malme-3M): 0.309 µM (active) | GI50 (T47D): 0.553 µM (active) | GI50 (ACHN): 0.0661 µM (active) | GI50 (OVCAR-4): 0.0731 µM (active) | GI50 (EKVX): 0.107 µM (active) | GI50 (CCRF-CEM): 0.0618 µM (active) | GI50 (786-0): 0.0736 µM (active) | GI50 (BT-549): 0.352 µM (active) | GI50 (MDA-MB-231): 1.39 µM (inactive) | GI50 (SN12C): 0.195 µM (active) | GI50 (SNB-19): 0.284 µM (active)

O=c1ccn(CC2(CO)CCCC2)c(=O)[nH]1
GI50 (MDA-MB-435): > 100 µM (inactive) | GI50 (HL-60): > 100 µM (inactive) | GI50 (HCT-15): > 100 µM | GI50 (MDA-N): > 100 µM (inactive) | GI50 (OVCAR-8): > 100 µM (inactive) | GI50 (COLO 205): > 100 µM (inactive) | GI50 (TK-10): > 100 µM (inactive) | GI50 (MOLT-4): > 100 µM (inactive) | GI50 (SF-295): > 100 µM (inactive) | GI50 (Malme-3M): > 100 µM (inactive) | GI50 (T47D): > 100 µM (inactive) | GI50 (ACHN): > 100 µM (inactive) | GI50 (OVCAR-4): > 100 µM (inactive) | GI50 (EKVX): > 100 µM (inactive) | GI50 (CCRF-CEM): > 100 µM (inactive) | GI50 (786-0): > 100 µM (inactive) | GI50 (BT-549): > 100 µM (inactive) | GI50 (MDA-MB-231): > 100 µM (inactive) | GI50 (SN12C): > 100 µM (inactive)

[N-]=[N+]=NCC(=O)c1cnc(O)nc1O
GI50 (MDA-MB-435): > 100 µM (inactive) | GI50 (HL-60): > 100 µM (inactive) | GI50 (HCT-15): > 100 µM | GI50 (MDA-N): > 100 µM (inactive) | GI50 (OVCAR-8): > 100 µM (inactive) | GI50 (COLO 205): > 100 µM (inactive) | GI50 (TK-10): > 100 µM (inactive) | GI50 (SF-295): > 100 µM (inactive) | GI50 (Malme-3M): > 100 µM (inactive) | GI50 (T47D): > 100 µM (inactive) | GI50 (ACHN): > 100 µM (inactive) | GI50 (OVCAR-4): > 100 µM (inactive) | GI50 (EKVX): > 100 µM (inactive) | GI50 (CCRF-CEM): > 100 µM (inactive) | GI50 (786-0): > 100 µM (inactive) | GI50 (BT-549): > 100 µM (inactive) | GI50 (MDA-MB-231): > 100 µM (inactive) | GI50 (SN12C): > 100 µM (inactive) | GI50 (SNB-19): > 100 µM (inactive)

CC(=O)O[C@H]1CC[C@@]2(C)C(=CC[C@@H]3[C@@H]2CC[C@]2(C)C(=N/O)/C(=C/c4ccc([N+](=O)[O-])cc4)C[C@@H]32)C1
GI50 (MDA-MB-435): 3.32 µM (inactive) | GI50 (HL-60): 2.33 µM (inactive) | GI50 (HCT-15): 4.6 µM | GI50 (MDA-N): 3.37 µM (inactive) | GI50 (COLO 205): 2.29 µM (inactive) | GI50 (TK-10): 8.43 µM (inactive) | GI50 (MOLT-4): 3.58 µM (inactive) | GI50 (SF-295): 3.74 µM (inactive) | GI50 (Malme-3M): 4.61 µM (inactive) | GI50 (T47D): 0.338 µM (active) | GI50 (ACHN): 6.22 µM (inactive) | GI50 (OVCAR-4): 17 µM (inactive) | GI50 (CCRF-CEM): 3.76 µM (inactive) | GI50 (786-0): 4.89 µM (inactive) | GI50 (BT-549): 2.25 µM (inactive) | GI50 (MDA-MB-231): 8.89 µM (inactive) | GI50 (SN12C): 5.5 µM (inactive) | GI50 (SNB-19): 2.94 µM (inactive)
